e = 2'-O-(2-methoxyethyl) (MOE); d = 2'-deoxy (DNA)
System: Drosha mRNA
Experiment: Antisense activity by RT-qPCR, Drosha, A431 cells
Format: cell-based, Human
Description: A431 cells were grown at 10,000 cells per well and pre-treated with a variety of growth factors to determine if the addition of exogenous growth factors affects antisense activity or uptake of modified antisense oligonucleotides in a cell. The growth factors used were EGF, insulin growth factor (IGF), transforming growth factor (TGF), […] (VEGF), hepatocyte growth factor (HGF), platelet growth factor (PGF) and fibroblasts growth factor (FGF). To test antisense activity, cells were treated for 4 hours with a growth factor or vehicle alone, and then treated with compound no. 25690 (complementary to Drosha), compound no. 395254 (complementary to Malat1), or vehicle alone. RNA was isolated from the cells and Drosha or Malat1 RNA levels were measured by RT-qPCR. Human primer probe set 13816 (forward sequence […], designated herein as SEQ ID NO: 3; reverse sequence […], designated herein as SEQ ID NO: 4; probe sequence […], designated herein as SEQ ID NO: 5) was used to measure Drosha mRNA levels and primer probe set RTS2736 (forward sequence […], designated herein as SEQ ID NO: 6; reverse sequence […], designated herein as SEQ ID NO: 7; probe sequence TGCCACATCGCCACCCCGT, designated herein as SEQ ID NO: 8) was used to measure Malat1 RNA levels. Drosha and Malat1 RNA levels were normalized to total RNA content, as measured by RIBOGREEN®. Results are presented in the tables below as normalized RNA levels, relative to untreated control cells.
A431 cells were treated with EGF or TGF at 200 ng/mL in the presence or absence of 1 μM of the EGFR tyrosine kinase inhibitor PD174265. The cells were then treated with compound no. 25690 or compound no. 395254 as in Example 8. Total RNA was isolated and analyzed by RT-qPCR, as in Example 8.
Following siRNA treatment, cells were treated with compound no. 25690 or compound no. 395254 in the presence or absence of EGF. 16 hours after treatment with a PS-ASO with or without EGF, cells were harvested, and RNA levels were analyzed via RT-qPCR as in Example 8.

“AGGAAGGAAGCTGGCGATCT (sugars from the 5' end e5 d10 e5, all phosphorothioate, methylation of C not given here) [compound 25690]” was tested, and the “Drosha mRNA (% Control)” value (6250 nM, Control) was 66.2 % Control, the “Drosha mRNA (% Control)” value (6250 nM, Control Luciferase siRNA) was 35.2 % Control and the “Drosha mRNA (% Control)” value (6250 nM, Control Luciferase siRNA, Table 26) was 47.8 % Control. For the same sequence, the “Drosha mRNA (% Control)” value (6250 nM, Control luciferase + EGF) was 40.9 % Control, the “Drosha mRNA (% Control)” value (6250 nM, Control, Table 20) was 54.0 % Control and the “Drosha mRNA (% Control)” value (6250 nM, EGF) was 48.4 % Control. The “Drosha mRNA (% Control)” value (6250 nM, EGF+PD174265) was 64.7 % Control, the “Drosha mRNA (% Control)” value (6250 nM, EGFR siRNA-1) was 41.9 % Control and the “Drosha mRNA (% Control)” value (6250 nM, EGFR siRNA-2) was 39.2 % Control. The “Drosha mRNA (% Control)” value (6250 nM, EGFR siRNA-2 + EGF) was 62.5 % Control, the “Drosha mRNA (% Control)” value (6250 nM, EGFR siRNA-2, Table 26) was 64.8 % Control and the “Drosha mRNA (% Control)” value (6250 nM, TGF) was 43.1 % Control. For the same sequence, the “Drosha mRNA (% Control)” value (6250 nM, TGF+PD174265) was 57.0 % Control, the “Drosha mRNA (% Control)” value (10000 nM, Control) was 48.2 % Control and the “Drosha mRNA (% Control)” value (10000 nM, EGF) was 27.7 % Control. The “Drosha mRNA (% Control)” value (10000 nM, TGF) was 29.7 % Control, the “Drosha mRNA (% Control)” value (12500 nM, Control) was 56.4 % Control and the “Drosha mRNA (% Control)” value (12500 nM, Control Luciferase siRNA) was 29.3 % Control. For the same sequence, the “Drosha mRNA (% Control)” value (12500 nM, Control Luciferase siRNA, Table 26) was 41.0 % Control, the “Drosha mRNA (% Control)” value (12500 nM, Control luciferase + EGF) was 30.9 % Control and the “Drosha mRNA (% Control)” value (12500 nM, Control, Table 20) was 47.6 % Control. For the same sequence, the “Drosha mRNA (% Control)” value (12500 nM, EGF) was 40.1 % Control, the “Drosha mRNA (% Control)” value (12500 nM, EGF+PD174265) was 53.6 % Control and the “Drosha mRNA (% Control)” value (12500 nM, EGFR siRNA-1) was 32.4 % Control. For the same sequence, the “Drosha mRNA (% Control)” value (12500 nM, EGFR siRNA-2) was 39.1 % Control, the “Drosha mRNA (% Control)” value (12500 nM, EGFR siRNA-2 + EGF) was 47.1 % Control and the “Drosha mRNA (% Control)” value (12500 nM, EGFR siRNA-2, Table 26) was 49.2 % Control. For the same sequence, the “Drosha mRNA (% Control)” value (12500 nM, TGF) was 29.7 % Control, the “Drosha mRNA (% Control)” value (12500 nM, TGF+PD174265) was 44.9 % Control and the “Drosha mRNA (% Control)” value (20000 nM, Control) was 48.8 % Control. The “Drosha mRNA (% Control)” value (20000 nM, EGF) was 25.4 % Control, the “Drosha mRNA (% Control)” value (20000 nM, TGF) was 25.5 % Control and the “Drosha mRNA (% Control)” value (25000 nM, Control) was 45.2 % Control. The “Drosha mRNA (% Control)” value (25000 nM, Control Luciferase siRNA) was 24.0 % Control, the “Drosha mRNA (% Control)” value (25000 nM, Control Luciferase siRNA, Table 26) was 37.2 % Control and the “Drosha mRNA (% Control)” value (25000 nM, Control luciferase + EGF) was 27.1 % Control. For the same sequence, the “Drosha mRNA (% Control)” value (25000 nM, Control, Table 20) was 38.9 % Control, the “Drosha mRNA (% Control)” value (25000 nM, EGF) was 40.1 % Control and the “Drosha mRNA (% Control)” value (25000 nM, EGF+PD174265) was 51.2 % Control. For the same sequence, the “Drosha mRNA (% Control)” value (25000 nM, EGFR siRNA-1) was 29.9 % Control, the “Drosha mRNA (% Control)” value (25000 nM, EGFR siRNA-2) was 35.5 % Control and the “Drosha mRNA (% Control)” value (25000 nM, EGFR siRNA-2 + EGF) was 41.2 % Control. The “Drosha mRNA (% Control)” value (25000 nM, EGFR siRNA-2, Table 26) was 42.3 % Control, the “Drosha mRNA (% Control)” value (25000 nM, TGF) was 23.5 % Control and the “Drosha mRNA (% Control)” value (25000 nM, TGF+PD174265) was 37.1 % Control. The “Drosha mRNA (% Control)” value (40000 nM, Control) was 44.3 % Control, the “Drosha mRNA (% Control)” value (40000 nM, EGF) was 23.6 % Control and the “Drosha mRNA (% Control)” value (40000 nM, TGF) was 22.7 % Control. The “Drosha mRNA (% Control)” value (50000 nM, Control) was 40.2 % Control, the “Drosha mRNA (% Control)” value (50000 nM, Control Luciferase siRNA) was 22.4 % Control and the “Drosha mRNA (% Control)” value (50000 nM, Control Luciferase siRNA, Table 26) was 33.1 % Control. The “Drosha mRNA (% Control)” value (50000 nM, Control luciferase + EGF) was 23.2 % Control, the “Drosha mRNA (% Control)” value (50000 nM, Control, Table 20) was 28.2 % Control and the “Drosha mRNA (% Control)” value (50000 nM, EGF) was 35.1 % Control. For the same sequence, the “Drosha mRNA (% Control)” value (50000 nM, EGF+PD174265) was 45.3 % Control, the “Drosha mRNA (% Control)” value (50000 nM, EGFR siRNA-1) was 25.7 % Control and the “Drosha mRNA (% Control)” value (50000 nM, EGFR siRNA-2) was 31.2 % Control. The “Drosha mRNA (% Control)” value (50000 nM, EGFR siRNA-2 + EGF) was 31.3 % Control, the “Drosha mRNA (% Control)” value (50000 nM, EGFR siRNA-2, Table 26) was 29.3 % Control and the “Drosha mRNA (% Control)” value (50000 nM, TGF) was 17.2 % Control. For the same sequence, the “Drosha mRNA (% Control)” value (50000 nM, TGF+PD174265) was 35.2 % Control, the “Drosha mRNA (% Control)” value (100000 nM, Control) was 39.2 % Control and the “Drosha mRNA (% Control)” value (100000 nM, Control Luciferase siRNA) was 19.7 % Control. The “Drosha mRNA (% Control)” value (100000 nM, Control Luciferase siRNA, Table 26) was 32.1 % Control, the “Drosha mRNA (% Control)” value (100000 nM, Control luciferase + EGF) was 21.0 % Control and the “Drosha mRNA (% Control)” value (100000 nM, Control, Table 20) was 25.2 % Control. The “Drosha mRNA (% Control)” value (100000 nM, EGF) was 32.9 % Control, the “Drosha mRNA (% Control)” value (100000 nM, EGF+PD174265) was 35.2 % Control and the “Drosha mRNA (% Control)” value (100000 nM, EGFR siRNA-1) was 24.1 % Control. For the same sequence, the “Drosha mRNA (% Control)” value (100000 nM, EGFR siRNA-2) was 28.4 % Control, the “Drosha mRNA (% Control)” value (100000 nM, EGFR siRNA-2 + EGF) was 30.4 % Control and the “Drosha mRNA (% Control)” value (100000 nM, EGFR siRNA-2, Table 26) was 31.2 % Control. The “Drosha mRNA (% Control)” value (100000 nM, TGF) was 15.2 % Control, the “Drosha mRNA (% Control)” value (100000 nM, TGF+PD174265) was 30.2 % Control and the “Drosha mRNA (% Control)” value (200000 nM, Control) was 30.2 % Control. The “Drosha mRNA (% Control)” value (200000 nM, Control Luciferase siRNA) was 14.9 % Control, the “Drosha mRNA (% Control)” value (200000 nM, Control Luciferase siRNA, Table 26) was 25.2 % Control and the “Drosha mRNA (% Control)” value (200000 nM, Control luciferase + EGF) was 21.4 % Control. For the same sequence, the “Drosha mRNA (% Control)” value (200000 nM, Control, Table 20) was 21.2 % Control, the “Drosha mRNA (% Control)” value (200000 nM, EGF) was 25.1 % Control and the “Drosha mRNA (% Control)” value (200000 nM, EGF+PD174265) was 33.2 % Control. The “Drosha mRNA (% Control)” value (200000 nM, EGFR siRNA-1) was 18.5 % Control, the “Drosha mRNA (% Control)” value (200000 nM, EGFR siRNA-2) was 20.8 % Control and the “Drosha mRNA (% Control)” value (200000 nM, EGFR siRNA-2 + EGF) was 25.1 % Control. For the same sequence, the “Drosha mRNA (% Control)” value (200000 nM, EGFR siRNA-2, Table 26) was 26.1 % Control, the “Drosha mRNA (% Control)” value (200000 nM, TGF) was 15.2 % Control and the “Drosha mRNA (% Control)” value (200000 nM, TGF+PD174265) was 27.2 % Control. It also gave an IC50 (Control (no growth factor), Table 15) of 1470 ± 50 nM, an IC50 (Control Luciferase siRNA, Table 24) of 1310 ± 40 nM and an IC50 (Control Luciferase siRNA, Table 26) of 1500 ± 50 nM. For the same sequence, the IC50 (Control luciferase + EGF, Table 26) was 630 ± 40 nM, the IC50 (Control, Table 18) was 1620 ± 90 nM and the IC50 (Control, Table 20) was 1390 ± 60 nM. For the same sequence, the IC50 (EGF 200 ng/mL + 1 μM PD174265, Table 18) was 1500 ± 50 nM, the IC50 (EGF 200 ng/mL, Table 18) was 580 ± 70 nM and the IC50 (EGF pre-treatment 4 hours, Table 15) was 600 ± 80 nM. It also gave an IC50 (EGFR siRNA-1, Table 24) of 2110 ± 100 nM, an IC50 (EGFR siRNA-2 + EGF, Table 26) of 2330 ± 110 nM and an IC50 (EGFR siRNA-2, Table 24) of 2790 ± 70 nM. The IC50 (EGFR siRNA-2, Table 26) was 2730 ± 100 nM, the IC50 (TGF 200 ng/mL + 1 μM PD174265, Table 20) was 1490 ± 40 nM and the IC50 (TGF 200 ng/mL, Table 20) was 500 ± 40 nM. For the same sequence, the IC50 (TGF pre-treatment 4 hours, Table 15) was 590 ± 70 nM and the “half maximal inhibitory concentration, Drosha” value (cells treated with IGF, FGF, HGF, VEGF or PGF relative to PS-ASO alone (data not shown)) was “unchanged”.
